{
  "source": "paper PMC7394586",
  "about": "(OncoTargets and therapy, 2020)",
  "key": {"[1]": {"test_system": "MHCC97-H cells", "test": "MTT cell survival assay", "format": "cell-based, human", "details": "for change of IC50 on MHCC97-H cells on overexpression of miR-3609: miR-3609 overexpression versus control"}, "[2]": {"test_system": "PDC No. 5 subcutaneous growth", "test": "Antitumor effect in vivo, subcutaneous tumor model", "design": "species or system nude mice", "details": "oral administration every 2 days, 10 treatments"}, "[3]": {"test_system": "MHCC97-H subcutaneous growth", "test": "Antitumor effect in vivo, subcutaneous tumor model", "design": "species or system nude mice", "details": "for IC50 values of Soarfenib on Subcutaneous Tumor Weights: MHCC97-H, oral administration every 2 days, 10 treatments"}, "[4]": {"test_system": "PDC No. 4 subcutaneous growth", "test": "Antitumor effect in vivo, subcutaneous tumor model", "design": "species or system nude mice", "details": "oral administration every 2 days, 10 treatments"}, "[5]": {"test_system": "MHCC97-H cells", "test": "Cell-based metabolism/clearance of sorafenib", "format": "in vitro ADME, human", "details": "LC-MS/MS, cultured HCC cells"}, "[6]": {"test": "Cell-based metabolism/clearance of sorafenib", "format": "in vitro ADME, human", "details": "human, MHCC97-H cells, Half-Life Time (t1/2, h), MHCC97-H, Cell-based, 1 μmol/L sorafenib"}, "[7]": {"test_system": "PDC No. 2 subcutaneous growth", "test": "Antitumor effect in vivo, subcutaneous tumor model", "design": "species or system nude mice", "details": "oral administration every 2 days, 10 treatments"}, "[8]": {"test_system": "MHCC97-H subcutaneous tumors", "test": "Tumor-based clearance of sorafenib in subcutaneous tumors", "format": "in vivo, nude mice", "details": "Control, sorafenib injected into subcutaneous tumors"}, "[9]": {"test_system": "PDC No. 1 subcutaneous tumors", "test": "Tumor-based clearance of sorafenib in subcutaneous tumors", "format": "in vivo, nude mice", "details": "PDC No. 1, Tumor-based, Control; sorafenib injected into subcutaneous tumors"}, "[10]": {"test": "Clinical outcome of advanced HCC patients who received sorafenib treatment", "format": "in vivo, human"}, "[11]": {"test_system": "PDC No. 3 subcutaneous tumors", "test": "Tumor-based clearance of sorafenib in subcutaneous tumors", "format": "in vivo, nude mice", "details": "PDC No. 3, Tumor-based, miR-3609; sorafenib injected into subcutaneous tumors"}, "[12]": {"test_system": "PDC No. 1 subcutaneous growth", "test": "Antitumor effect in vivo, subcutaneous tumor model", "design": "species or system nude mice", "details": "oral administration every 2 days, 10 treatments"}, "[13]": {"test_system": "PDC No. 3 subcutaneous growth", "test": "Antitumor effect in vivo, subcutaneous tumor model", "design": "species or system nude mice", "details": "oral administration every 2 days, 10 treatments"}, "[14]": {"details": "patients with EPAS-1 mRNA expression High (n = 26)"}, "[15]": {"details": "patients with EPAS-1 mRNA expression Low (n = 26)"}, "[16]": {"details": "patients with miR-3609 expression High (n = 26)"}, "[17]": {"details": "patients with miR-3609 expression Low (n = 26)"}},
  "data": [
    {"smiles": "COc1cc2c(Oc3ccc4[nH]c(C)cc4c3F)ccnc2cc1OCC1(N)CC1", "note": "[anlotinib]", "values": [
      {"measurement": "change of IC50 on MHCC97-H cells on overexpression of miR-3609", "setting": "[1]", "result": "decreased"}
    ]},
    {"smiles": "CNC(=O)c1cc(Oc2ccc(NC(=O)Nc3ccc(Cl)c(C(F)(F)F)c3)cc2)ccn1", "note": "[sorafenib]", "values": [
      {"measurement": "IC50 values of Soarfenib on Subcutaneous Tumor Weights", "setting": "[2]; PDC No. 5, Control", "result": "2.88 ± 0.39", "unit": "mg/kg"},
      {"measurement": "IC50 values of Soarfenib on Subcutaneous Tumor Weights", "setting": "[2]; PDC No. 5, miR-3609 + EPAS-1^Mut", "result": "2.32 ± 0.69", "unit": "mg/kg"},
      {"measurement": "IC50 values of Soarfenib on Subcutaneous Tumor Weights", "setting": "[2]; PDC No. 5, miR-3609", "result": "0.66 ± 0.21", "unit": "mg/kg"},
      {"measurement": "IC50 values of Soarfenib on Subcutaneous Tumor Weights", "setting": "[3]; Control", "result": "2.25 ± 0.44", "unit": "mg/kg"},
      {"measurement": "IC50 values of Soarfenib on Subcutaneous Tumor Weights", "setting": "[3]; miR-3609 + EPAS-1^Mut", "result": "2.51 ± 0.52", "unit": "mg/kg"},
      {"measurement": "IC50 values of Soarfenib on Subcutaneous Tumor Weights", "setting": "[3]; miR-3609", "result": "0.15 ± 0.02", "unit": "mg/kg"},
      {"measurement": "subcutaneous growth of MHCC97-H cells", "setting": "[3]; nude mice, oral administration", "result": "inhibited the subcutaneous growth of MHCC97-H cells in a dose-dependent manner"},
      {"measurement": "IC50 values of Soarfenib on Subcutaneous Tumor Weights", "setting": "[4]; PDC No. 4, Control", "result": "2.70 ± 0.70", "unit": "mg/kg"},
      {"measurement": "IC50 values of Soarfenib on Subcutaneous Tumor Weights", "setting": "[4]; PDC No. 4, miR-3609 + EPAS-1^Mut", "result": "2.76 ± 0.62", "unit": "mg/kg"},
      {"measurement": "IC50 values of Soarfenib on Subcutaneous Tumor Weights", "setting": "[4]; PDC No. 4, miR-3609", "result": "0.95 ± 0.60", "unit": "mg/kg"},
      {"measurement": "metabolism and clearance in HCC cells", "setting": "[5]", "result": "gradually metabolized and cleared"},
      {"measurement": "half-life at 1 μmol/L", "setting": "[6]; Control", "result": "18.6 ± 2.46", "unit": "h"},
      {"measurement": "half-life at 1 μmol/L", "setting": "[6]; miR-3609 + EPAS-1^Mut", "result": "18 ± 3.18", "unit": "h"},
      {"measurement": "half-life at 1 μmol/L", "setting": "[6]; miR-3609", "result": "37.1 ± 6.12", "unit": "h"},
      {"measurement": "survival of MHCC97-H cells", "setting": "[1]; 0.01-10 μmol/L", "result": "inhibited the survival of MHCC97-H cells in a dose-dependent manner"},
      {"measurement": "change of IC50 on MHCC97-H cells on overexpression of miR-3609", "setting": "[1]", "result": "decreased"},
      {"measurement": "IC50 values of Soarfenib on Subcutaneous Tumor Weights", "setting": "[7]; PDC No. 2, Control", "result": "1.77 ± 0.20", "unit": "mg/kg"},
      {"measurement": "IC50 values of Soarfenib on Subcutaneous Tumor Weights", "setting": "[7]; PDC No. 2, miR-3609 + EPAS-1^Mut", "result": "2.20 ± 0.45", "unit": "mg/kg"},
      {"measurement": "IC50 values of Soarfenib on Subcutaneous Tumor Weights", "setting": "[7]; PDC No. 2, miR-3609", "result": "0.48 ± 0.10", "unit": "mg/kg"},
      {"measurement": "Half-Life Time (t1/2, h)", "setting": "[8]", "result": "30.73 ± 6.46", "unit": "h"},
      {"measurement": "Half-Life Time (t1/2, h)", "setting": "[9]", "result": "26.32 ± 6.91", "unit": "h"},
      {"measurement": "OS (overall survival)", "setting": "[10]; [14]", "result": 11.0, "unit": "M"},
      {"measurement": "TTP (time to progress)", "setting": "[10]; [14]", "result": 8.0, "unit": "M"},
      {"measurement": "OS (overall survival)", "setting": "[10]; [15]", "result": 16.0, "unit": "M"},
      {"measurement": "TTP (time to progress)", "setting": "[10]; [15]", "result": 13.0, "unit": "M"},
      {"measurement": "OS (overall survival)", "setting": "[10]; [16]", "result": 15.0, "unit": "M"},
      {"measurement": "TTP (time to progress)", "setting": "[10]; [16]", "result": 12.0, "unit": "M"},
      {"measurement": "OS (overall survival)", "setting": "[10]; [17]", "result": 12.0, "unit": "M"},
      {"measurement": "TTP (time to progress)", "setting": "[10]; [17]", "result": 8.0, "unit": "M"},
      {"measurement": "Half-Life Time (t1/2, h)", "setting": "[11]", "result": "50.73 ± 4.02", "unit": "h"},
      {"measurement": "IC50 values of Soarfenib on Subcutaneous Tumor Weights", "setting": "[12]; PDC No. 1, Control", "result": "~3", "unit": "mg/kg"},
      {"measurement": "IC50 values of Soarfenib on Subcutaneous Tumor Weights", "setting": "[12]; PDC No. 1, miR-3609 + EPAS-1^Mut", "result": ">3", "unit": "mg/kg"},
      {"measurement": "IC50 values of Soarfenib on Subcutaneous Tumor Weights", "setting": "[12]; PDC No. 1, miR-3609", "result": "0.87 ± 0.39", "unit": "mg/kg"},
      {"measurement": "IC50 values of Soarfenib on Subcutaneous Tumor Weights", "setting": "[13]; PDC No. 3, Control", "result": "1.99 ± 0.54", "unit": "mg/kg"},
      {"measurement": "IC50 values of Soarfenib on Subcutaneous Tumor Weights", "setting": "[13]; PDC No. 3, miR-3609 + EPAS-1^Mut", "result": "1.81 ± 0.41", "unit": "mg/kg"},
      {"measurement": "IC50 values of Soarfenib on Subcutaneous Tumor Weights", "setting": "[13]; PDC No. 3, miR-3609", "result": "0.30 ± 0.04", "unit": "mg/kg"}
    ]},
    {"smiles": "CNC(=O)c1cc(Oc2ccc(NC(=O)Nc3ccc(Cl)c(C(F)(F)F)c3)c(F)c2)ccn1", "note": "[regorafenib]", "values": [
      {"measurement": "change of IC50 on MHCC97-H cells on overexpression of miR-3609", "setting": "[1]", "result": "decreased"}
    ]},
    {"smiles": "N#CC1(c2ccc(NC(=O)c3cccnc3NCc3ccncc3)cc2)CCCC1", "note": "[apatinib]", "values": [
      {"measurement": "change of IC50 on MHCC97-H cells on overexpression of miR-3609", "setting": "[1]", "result": "decreased"}
    ]},
    {"smiles": "COc1cc2nccc(Oc3ccc(NC(=O)NC4CC4)c(Cl)c3)c2cc1C(N)=O", "note": "[lenvatinib]", "values": [
      {"measurement": "change of IC50 on MHCC97-H cells on overexpression of miR-3609", "setting": "[1]", "result": "decreased"}
    ]}
  ]
}
